In patent US20150366962A1 (priority 2014, published 2015):

How the values were obtained:
[1] = tested on: Mouse bone marrow-derived dendritic cells (mBMDCs); experiment: Costimulatory-molecule (CD40, CD86) expression in mouse BMDCs; assay type: cell-based, C57BL/6 mice
Procedure: (A) Upregulation of antigen uptake by 1Z105. BMDCs prepared from C57BL/6 mice were incubated with 10 μM 1Z105 or MPLA overnight. Antigen, Alexa Fluor 488-conjugated ovalbumin (OVA-488), was added to the culture for the last 30 min of incubation. The cells were washed and stained for CD11c. OVA-associated dendritic cells in the CD11c^hi population were evaluated by flow cytometry. Cells incubated at 4° C. served as a negative control. (B and C) Enhancement of expression of costimulatory molecules by 1Z105.WT (B) or Tlr4^−/− (C) BMDCs were incubated with 1Z105 (10 or 2 μM) or MPLA (0.04 μg/ml) overnight, and expression of CD40 and CD86 was assessed by flow cytometric assay. (D) 1Z105 promotes antigen cross-presentation. Wild-type BMDCs were incubated with 1Z105 (2 μM) overnight, and OVA (10 μg/ml) was added to the culture for the last 4 h of incubation. […] OT-1 T-cell proliferation was monitored by flow-cytometric assay. […] Cytokine release of IL-1β, IL-6, IL-8, IL-12p70, and TNF-α was determined by Luminex bead assay. […]
Mouse bone marrow-derived dendritic cells (mBMDCs) were prepared from wild type or Tlr4^−/− C57BL/6 mice. mBMDCs (10^5 cells per well) were plated in 96-well plates in 200 μl of complete RPMI 1640. […] The cells were stained for CD11c, and OVA uptake and expression of CD40 and CD86 in the CD11chi-gated population was determined by flow cytometry.

BMDC (C57BL/6) = experiment: IL-6 and IP-10 release by BMDC with 1V270 with or without 1Z105; assay type: cell-based, C57BL/6 mice; conditions: 1V270 0.025 or 0.1 μM with 1Z105 5 μM
Procedure: To evaluate whether 1Z105 can enhance the proinflammatory cytokine induction by 1V270, BMDC (C57BL/6) were incubated with 1V270 (0.025, or 0.1 μM) in the presence or absence of 1Z105 (5 μM). […] Antigen presenting function was evaluated using splenocytes prepared from OVA MHC class II-restricted alpha beta T cell receptor (TCR) transgenic mice OT-II. Splenocytes were cultured with OVA peptide (OVA323-339) for 3 days with 1Z105, or 1V270 alone or in combination. The frequency of intracellular (IC) IFNγ expressing CD4 T cells was determined by flow cytometric assay. Treatment with 1V270 alone increased intracellular IFNγ (3.7 and 6.8% by 25 and 100 nM, respectively).

OVA = OVA immunization: splenocyte IFN-γ ELISA and ELISpot; assay type: in vivo, C57BL/6 mice
Procedure: AddaVax and vehicle were used as controls. The sera were collected on day 35, and the serum IgG1 (A) and IgG2c (B) levels were tested. (C) Splenocytes were incubated with OVA (100 μg/ml) for 3 days, and IFN-γ levels in the culture supernatants were determined by ELISA. Data were pooled from three experiments showing similar trends. (D and E) Myd88^−/−, Tri^flps/lps, or wild-type mice (n=8/group) were i.m. immunized with ovalbumin mixed with the indicated adjuvant or vehicle in a 50-μl volume on days 0 and 14. On day 35, splenocytes were incubated with OVA MHC class I peptides (OVA257-264) (D) or class II peptides (OVA323-339) (E) overnight, and IFN-γ-producing cells were detected by ELISpot assay. The data shown are pooled from 2 or 3 independent experiments showing similar trends. *, P 0.05 compared to no adjuvant (A to C) or the WT (D and E) by one-way ANOVA with Dunnett's post hoc testing.
Vehicle (10% DMSO in saline) and AddaVax (1:1 ratio with antigen in saline) were used as controls. Sera were collected on days 0, 7, 14, 21, 28, and 35. Mice were sacrificed on day 35, and the spleens were harvested. Approximately 2.5×10^6/ml spleen cells was dispersed into round-bottom microtiter plates in triplicate in a total volume of 200 μl complete RPMI 1640 and restimulated with either 100 μg/ml OVA or medium alone. The cultures were then incubated at 37° C., 5% CO2, and the supernatants were harvested after 72 h. The levels of gamma interferon (IFN-γ) in the culture supernatants were measured by ELISA (BD Bioscience, San Jose, Calif.) according to the manufacturer's instructions. In parallel, splenocytes were stimulated with 10 μg/ml OVA class I (OVA257-264) or class II (OVA323-339) peptide on anti-IFN-γ antibody-coated enzyme-linked immunospot (ELISpot) plates for 18 h. The results are reported as numbers of IFN-spot-forming cells (SFC) per million cells as described below.

[2] = tested on: B/Florida/04/2006 (Yamagata lineage); parameters: species or system BALB/c mice; conditions: mouse, in vivo

Structure (SMILES)	surface expression of CD40 and CD86 ([1]; TLR4-deficient (Tlr4-/-) BMDCs)	surface expression of CD40 and CD86 ([1]; WT BMDCs, 1Z105 10 or 2 μM, MPLA 0.04 μg/ml, overnight)	IL-6 release induced by 1V270 (BMDC (C57BL/6))	IP-10 release induced by 1V270 (BMDC (C57BL/6))	dependence of increased antigen-specific T cell frequencies on MyD88 and TRIF (OVA; Myd88-/- and TrifLps2/Lps2 versus wild-type mice)	frequencies of IFN-γ-releasing T cells specific for OVA class I peptide (ELISpot) (OVA; OVA257-264, day 35 splenocytes)	frequencies of IFN-γ-releasing T cells specific for OVA class II peptide (ELISpot) (OVA; OVA323-339, day 35 splenocytes)	OVA-specific IFN-γ release by T cells restimulated ex vivo (OVA; splenocytes, OVA 100 μg/ml, 3 days, ELISA)	mortality compared to the no-adjuvant group [2]
Cn1c2ccccc2c2nc(SCC(=O)NC3CCCCC3)n(-c3ccccc3)c(=O)c21 [Compound 1Z105]	not observed	increased the surface expression of CD40 and CD86 at levels similar to that of MPLA	significantly enhanced	significantly enhanced	–	–	–	–	–
CCCCCCCCC=CCCCCCCCC(=O)OCC(COP(=O)(O)OCCNC(=O)c1ccc(Cn2c(=O)[nH]c3c(N)nc(OCCOC)nc32)cc1)OC(=O)CCCCCCCC=CCCCCCCCC (stereo not drawn) [Compound 1V270]	–	–	–	–	partially dependent upon the MyD88 and TRIF pathways	increased frequencies	increased frequencies	promoted OVA-specific IFN-γ release	significantly reduced
